Experimental data published in the NIST ThermoML archive (doi:10.1021/je0601255).
Numbers after ± are expanded uncertainties.

How the values were obtained:
[1] = xn = mol fraction of the nth substance listed; settings: 101 kPa, Liquid, x1 = 1; for viscosity: Capillary tube (Ostwald / Ubbelohde) method; for mass density: Pycnometric method
[2] = 101 kPa, Liquid; for viscosity: Capillary tube (Ostwald / Ubbelohde) method; for mass density: Pycnometric method

Structure (SMILES) | viscosity ([1]; 288.15 K) | mass density ([1]; 288.15 K) | viscosity ([1]; 298.15 K) | mass density ([1]; 298.15 K) | viscosity ([1]; 308.15 K) | mass density ([1]; 308.15 K) | viscosity ([1]; 318.15 K) | mass density ([1]; 318.15 K) | viscosity ([2]; 288.15 K) | mass density ([2]; 288.15 K) | viscosity ([2]; 298.15 K) | mass density ([2]; 298.15 K) | viscosity ([2]; 308.15 K) | mass density ([2]; 308.15 K) | viscosity ([2]; 318.15 K) | mass density ([2]; 318.15 K)
CCCCO [butan-1-ol] + C=C(C)C(=O)OCc1ccccc1 | 3.286 ± 0.07 mPa·s | 812.3 ± 1.7 kg/m3 | 2.566 ± 0.055 mPa·s | 805.6 ± 1.7 kg/m3 | 1.998 ± 0.043 mPa·s | 798 ± 1.7 kg/m3 | 1.55 ± 0.033 mPa·s | 790.5 ± 1.6 kg/m3 |  |  |  |  |  |  |  | 
C=C(C)C(=O)O [2-methyl-2-propenoic acid] |  |  |  |  |  |  |  |  | 1.447 ± 0.031 mPa·s | 1018.3 ± 2.1 kg/m3 | 1.267 ± 0.027 mPa·s | 1009.5 ± 2.1 kg/m3 | 1.078 ± 0.023 mPa·s | 999.4 ± 2.1 kg/m3 | 0.945 ± 0.02 mPa·s | 989.2 ± 2.1 kg/m3
C=C(C)C(=O)OCCO [2-hydroxyethyl 2-methyl-2-propenoate] |  |  |  |  |  |  |  |  | 8.234 ± 0.19 mPa·s | 1074.7 ± 2.4 kg/m3 | 5.784 ± 0.13 mPa·s | 1067.1 ± 2.4 kg/m3 | 4.194 ± 0.096 mPa·s | 1057.7 ± 2.4 kg/m3 | 3.181 ± 0.073 mPa·s | 1048.6 ± 2.4 kg/m3
C=C(C)C(=O)OCc1ccccc1 [benzyl methacrylate] |  |  |  |  |  |  |  |  | 2.871 ± 0.066 mPa·s | 1041.2 ± 2.4 kg/m3 | 2.302 ± 0.053 mPa·s | 1034.7 ± 2.3 kg/m3 | 1.885 ± 0.043 mPa·s | 1025.8 ± 2.3 kg/m3 | 1.58 ± 0.036 mPa·s | 1017 ± 2.3 kg/m3

Second part, the compound after the results:

viscosity ([1]; 288.15 K) | mass density ([1]; 288.15 K) | viscosity ([1]; 298.15 K) | mass density ([1]; 298.15 K) | viscosity ([1]; 308.15 K) | mass density ([1]; 308.15 K) | viscosity ([1]; 318.15 K) | mass density ([1]; 318.15 K) | viscosity ([2]; 288.15 K) | mass density ([2]; 288.15 K) | viscosity ([2]; 298.15 K) | mass density ([2]; 298.15 K) | viscosity ([2]; 308.15 K) | mass density ([2]; 308.15 K) | viscosity ([2]; 318.15 K) | mass density ([2]; 318.15 K) | Structure (SMILES)
3.286 ± 0.07 mPa·s | 812.3 ± 1.7 kg/m3 | 2.566 ± 0.055 mPa·s | 805.6 ± 1.7 kg/m3 | 1.998 ± 0.043 mPa·s | 798 ± 1.7 kg/m3 | 1.55 ± 0.033 mPa·s | 790.5 ± 1.6 kg/m3 |  |  |  |  |  |  |  |  | CCCCO [butan-1-ol] + C=C(C)C(=O)OCCO
 |  |  |  |  |  |  |  | 3.286 ± 0.07 mPa·s | 812.3 ± 1.7 kg/m3 | 2.566 ± 0.055 mPa·s | 805.6 ± 1.7 kg/m3 | 1.998 ± 0.043 mPa·s | 798 ± 1.7 kg/m3 | 1.55 ± 0.033 mPa·s | 790.5 ± 1.6 kg/m3 | CCCCO [butan-1-ol]
3.286 ± 0.07 mPa·s | 812.3 ± 1.7 kg/m3 | 2.566 ± 0.055 mPa·s | 805.6 ± 1.7 kg/m3 | 1.998 ± 0.043 mPa·s | 798 ± 1.7 kg/m3 | 1.55 ± 0.033 mPa·s | 790.5 ± 1.6 kg/m3 |  |  |  |  |  |  |  |  | CCCCO [butan-1-ol] + C=C(C)C(=O)O
